Laboratory results published in ChEMBL document CHEMBL1152907, “Synthesis and cytotoxicities of icogenin analogues with disaccharide residues” (Bioorg Med Chem Lett, 2009).
pIC50: −log10 of the molar value.

What was measured:
Format in all cases: functional, cell-based
BXPC-3 = assay: Cytotoxicity against human BxPC3 cells after 72 hrs by MTT assay; conditions: BXPC-3, 72 h
MCF7 = assay: Cytotoxicity against human MCF7 cells after 72 hrs by MTT assay; conditions: MCF7, 72 h
A549 = assay: Cytotoxicity against human A549 cells after 72 hrs by MTT assay; conditions: A549, 72 h
Capan-2 = assay: Cytotoxicity against human Capan2 cells after 72 hrs by MTT assay; conditions: Capan-2, 72 h
A2780 = assay: Cytotoxicity against human A2780 cells after 72 hrs by MTT assay; conditions: A2780, 72 h
HCT-8 = assay: Cytotoxicity against human HCT8 cells after 72 hrs by MTT assay; conditions: HCT-8, 72 h
SW1990 = assay: Cytotoxicity against human SW1990 cells after 72 hrs by MTT assay; conditions: SW1990, 72 h
Bel-7402 = assay: Cytotoxicity against human Bel7402 cells after 72 hrs by MTT assay; conditions: Bel-7402, 72 h
PANC-1 = assay: Cytotoxicity against human PANC1 cells after 72 hrs by MTT assay; conditions: PANC-1, 72 h
HL-60 = assay: Cytotoxicity against human HL60 cells after 72 hrs; conditions: HL-60, 72 h

For `C[C@@H]1CC[C@@]2(OC1)O[C@H]1C[C@H]3[C@@H]4CC=C5C[C@@H](O[C@@H]6O[C@H](CO)[C@@H](O)[C@H](O[C@@H]7O[C@@H](C)[C@H](O)[C@@H](O)[C@H]7O)[C@H]6O)CC[C@]5(C)[C@H]4CC[C@]3(C)[C@H]1[C@@H]2C` [POLYPHILLIN C], the pIC50 (BXPC-3) was < 5.00, the pIC50 (MCF7) was 5.46 and the pIC50 (A549) was 5.64. For the same compound, the pIC50 (Capan-2) was 5.57, the pIC50 (A2780) was < 5.00 and the pIC50 (HCT-8) was 5.38. The pIC50 (SW1990) was 5.27, the pIC50 (Bel-7402) was < 5.00 and the pIC50 (PANC-1) was 4.93.
In the case of `CO[C@]1(CC[C@@H](C)CO)O[C@H]2C[C@H]3[C@@H]4CC=C5C[C@@H](O[C@@H]6O[C@H](CO)[C@@H](O)[C@H](O[C@@H]7O[C@H](CO)[C@@H](O)[C@H](O)[C@H]7O)[C@H]6O[C@@H]6O[C@@H](C)[C@H](O)[C@@H](O)[C@H]6O)CC[C@]5(C)[C@H]4CC[C@]3(C)[C@H]2[C@@H]1C` [ICOGENIN(BETA)], the pIC50 (BXPC-3) was 5.96, the pIC50 (MCF7) was 5.97 and the pIC50 (A549) was 5.73. For the same compound, the pIC50 (Capan-2) was 5.96, the pIC50 (A2780) was 6.04 and the pIC50 (HL-60) was 5.59. The pIC50 (HCT-8) was 6.03, the pIC50 (SW1990) was 6.00 and the pIC50 (Bel-7402) was 6.07. The pIC50 (PANC-1) was 6.08.
With `C[C@@H]1CC[C@@]2(OC1)O[C@H]1C[C@H]3[C@@H]4CC=C5C[C@@H](O[C@@H]6O[C@H](CO)[C@@H](O[C@@H]7O[C@@H](C)[C@H](O)[C@@H](O)[C@H]7O)[C@H](O)[C@H]6O[C@@H]6O[C@@H](C)[C@H](O)[C@@H](O)[C@H]6O)CC[C@]5(C)[C@H]4CC[C@]3(C)[C@H]1[C@@H]2C` [DIOSCIN] the pIC50 (BXPC-3) was 6.15, the pIC50 (MCF7) was 5.99 and the pIC50 (A549) was 6.15. For the same compound, the pIC50 (Capan-2) was 7.30, the pIC50 (A2780) was 5.35 and the pIC50 (HCT-8) was 6.25. It also gave a pIC50 (SW1990) of 6.30, a pIC50 (Bel-7402) of 6.64 and a pIC50 (PANC-1) of 6.09.
With `Nc1ccn([C@@H]2O[C@H](CO)[C@@H](O)C2(F)F)c(=O)n1` [GEMCITABINE] the pIC50 (BXPC-3) was 5.54, the pIC50 (MCF7) was 5.48 and the pIC50 (A549) was 5.85. It also gave a pIC50 (Capan-2) of 5.77, a pIC50 (A2780) of 6.51 and a pIC50 (HCT-8) of 5.76. The pIC50 (SW1990) was 5.92, the pIC50 (Bel-7402) was 6.08 and the pIC50 (PANC-1) was 5.25.
Work on `C[C@@H]1CC[C@@]2(OC1)O[C@H]1C[C@H]3[C@@H]4CC=C5C[C@@H](O[C@@H]6O[C@H](CO)[C@@H](O)[C@H](O[C@@H]7O[C@H](CO)[C@@H](O)[C@H](O)[C@H]7O)[C@H]6O[C@@H]6O[C@@H](C)[C@H](O)[C@@H](O)[C@H]6O)CC[C@]5(C)[C@H]4CC[C@]3(C)[C@H]1[C@@H]2C` [GRACILLIN] yielded a pIC50 (BXPC-3) of 5.89, a pIC50 (MCF7) of 4.76 and a pIC50 (A549) of 6.02. It also gave a pIC50 (Capan-2) of 5.89, a pIC50 (A2780) of 5.37 and a pIC50 (HCT-8) of 6.04. For the same compound, the pIC50 (SW1990) was 5.96, the pIC50 (Bel-7402) was 5.96 and the pIC50 (PANC-1) was 6.15.
`CO[C@]1(CC[C@@H](C)CO)O[C@H]2C[C@H]3[C@@H]4CC=C5C[C@@H](O[C@H]6O[C@H](CO)[C@@H](O)[C@H](O)[C@H]6O[C@@H]6O[C@@H](C)[C@H](O)[C@@H](O)[C@H]6O)CC[C@]5(C)[C@H]4CC[C@]3(C)[C@H]2[C@@H]1C` showed a pIC50 (BXPC-3) of 5.98, a pIC50 (MCF7) of 5.58 and a pIC50 (A549) of 5.83. For the same compound, the pIC50 (Capan-2) was 5.87, the pIC50 (A2780) was 5.11 and the pIC50 (HCT-8) was 5.90. The pIC50 (SW1990) was 6.14, the pIC50 (Bel-7402) was 6.03 and the pIC50 (PANC-1) was 6.06.
With `CO[C@]1(CC[C@@H](C)CO)O[C@H]2C[C@H]3[C@@H]4CC=C5C[C@@H](O[C@@H]6O[C@H](CO)[C@@H](O)[C@H](O)[C@H]6O[C@@H]6O[C@@H](C)[C@H](O)[C@@H](O)[C@H]6O)CC[C@]5(C)[C@H]4CC[C@]3(C)[C@H]2[C@@H]1C` the pIC50 (BXPC-3) was 6.00, the pIC50 (MCF7) was 5.54 and the pIC50 (A549) was 5.97. For the same compound, the pIC50 (Capan-2) was 5.97, the pIC50 (A2780) was 5.14 and the pIC50 (HCT-8) was 5.99. It also gave a pIC50 (SW1990) of 6.18, a pIC50 (Bel-7402) of 6.05 and a pIC50 (PANC-1) of 6.08.
Work on `CO[C@]1(CC[C@@H](C)CO)O[C@H]2C[C@H]3[C@@H]4CC=C5C[C@@H](O[C@H]6O[C@H](CO)[C@@H](O)[C@H](O[C@@H]7O[C@H](CO)[C@@H](O)[C@H](O)[C@H]7O)[C@H]6O[C@@H]6O[C@@H](C)[C@H](O)[C@@H](O)[C@H]6O)CC[C@]5(C)[C@H]4CC[C@]3(C)[C@H]2[C@@H]1C` yielded a pIC50 (BXPC-3) of 6.00, a pIC50 (MCF7) of 5.92 and a pIC50 (A549) of 6.05. The pIC50 (Capan-2) was 5.96, the pIC50 (A2780) was 5.15 and the pIC50 (HCT-8) was 5.89. It also gave a pIC50 (SW1990) of 6.05, a pIC50 (Bel-7402) of 6.04 and a pIC50 (PANC-1) of 6.09.
With `C[C@@H]1CC[C@@]2(OC1)O[C@H]1C[C@H]3[C@@H]4CC=C5C[C@@H](O[C@H]6O[C@H](CO)[C@@H](O)[C@H](O)[C@H]6O[C@@H]6O[C@@H](C)[C@H](O)[C@@H](O)[C@H]6O)CC[C@]5(C)[C@H]4CC[C@]3(C)[C@H]1[C@@H]2C` the pIC50 (BXPC-3) was < 5.00, the pIC50 (MCF7) was < 5.00 and the pIC50 (A549) was < 5.00. The pIC50 (Capan-2) was < 5.00, the pIC50 (A2780) was < 5.00 and the pIC50 (HCT-8) was < 5.00. For the same compound, the pIC50 (SW1990) was < 5.00, the pIC50 (Bel-7402) was < 5.00 and the pIC50 (PANC-1) was < 5.00.
